From US8815830B2, “Nucleosides with antiviral and anticancer activity” (Regents of the University of Minnesota, priority 2004, dated 2014)

Tested on: CCRF-CEM cells
Experiment: Test C: anti-cancer assay, CCRF-CEM cell viability by MTS reagent
Format: cell-based, human
Settings: 48 hr incubation at 37° C., MTS reagent 4 hr, absorbance at 490 nm, triplicate
Method: The anti-cancer properties of the compounds of the invention can be evaluated using the following assay.
CCRF-CEM cells were grown in medium containing RPMI 1640 supplemented with 10% heat-inactivated fetal bovine serum, penicillin (124 units/ml of medium) and streptomycin (0.125 mg/ml of medium). A stock solution of […] was made using Trypan Blue Dye Exclusion Method as a means of counting the cells. The following concentrations of test compounds were made: 250, 200, 100, 10, 1, 0.1, 0.01 and 0.001 μM. The cell stock (50 μl, 5×10^4 cells) was incubated with 50 μl of each of the compounds in triplicate in a 96-well plate. The cells were incubated with the compound at 37° C. in a 10% CO2-90% air environment for 48 hr. A negative control was also done where the cells were incubated in drug-free medium.
Cell viability was determined by adding 20 μl of MTS reagent and incubating the cells for 4 hr after which the absorbance was found at 490 nm.

IC50: 384 ± 134 µM
SMILES: Nc1ncnc2c1ncn2[C@@H]1O[C@H](CO)[C@@H](O)[C@@H]1O [Ara-A, 9-beta-D-arabinofuranosyladenosine]
